Data set [1] can be described thus: Lyophilisation solubility assay (Lysa). The data set is classed as physicochemical. Conditions: pH 6.5, aqueous buffer, thermodynamic from solid. The method, then: The aqueous solubility is an important physico-chemical property that plays a significant role in various physical and biological processes. It is desirable to have good solubility which enables good permeability and gastric and intestinal absorption, linear dose proportionality, less PK variability, and easy formulation for PD/PK studies. […] Lyophilisation solubility assay (Lysa) is a well adopted high throughput assay to measure compound solubility in industry.
Samples are prepared in duplicate from 10 mM DMSO stock solutions. After evaporation of DMSO with a centrifugal vacuum evaporator, the residue is solved in 0.05 M phosphate buffer (pH 6.5), stirred for one hour and then shook for two hours. After one night, the solution is filtered using a microtiter filter plate and then the filtrate and its 1/10 dilution are then analyzed by direct UV measurement or by HPLC-UV. In addition a four-point calibration curve is prepared from the 10 mM stock solutions and used for the solubility determination of the compounds. The results are in μg/ml. In case the percentage of sample measured in solution after evaporation divided by the calculated maximum of sample amount is bigger than 80% the solubility is reported as bigger than this value.

For data set [2], the system named is HBV replication in HepG2.2.15 cells. The data set can be described thus: Anti-HBV activity in vitro in HepG2.2.15 cells (extracellular HBV DNA by qPCR). The data set is classed as cell-based. To be noted: Hepatitis B virus, HepG2.2.15, Anti-HBV activity in HepG2.2.15 cells; read-out: EC50. Summed up:
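EC50 is derived from qPCR of extracellular viral DNA in culture supernatant after 5-day compound exposure. Cells (HepG2.2.15, stably carrying the HBV genome) were plated and incubated overnight at 37 °C before half-log dilution series were added at 0.5% final DMSO.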

Data set [3] in a line: Human microsomal clearance assay. Conditions: human, 1 μM, pH 7.4. The format is in vitro ADME. A digest of the protocol: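 Liver microsomes (0.5 mg/mL protein) were incubated with 1 μM compound at 37 °C, pH 7.4 phosphate, with an NADPH-regenerating system. Samples at 0-30 min were quenched and measured by LC-MS/MS for parent loss. No-NADPH controls were included.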

≈ marks a conversion by molar mass, not a printed value.

The source of these data is US9266904B2, “6-bridged heteroaryldihydropyrimidines for the treatment and prophylaxis of hepatitis B virus infection” (priority 2013, dated 2016).

By thermodynamic solubility is commonly meant the concentration in solution at equilibrium with solid. As usually defined, the EC50 is the concentration that produces a half-maximal response.

Molecule `COC(=O)C1=C(CN2[C@@H]3COC[C@H]2C[C@@H](CC(=O)O)C3)NC(c2nccs2)=N[C@H]1c1cccc(F)c1Cl` [Example 55, 2-[(1R,5)-9-[[(4R)-4-(2-chloro-3-fluoro-phenyl)-5-methoxycarbonyl-2-thiazol-2-yl-1,4-dihydropyrimidin-6-yl]methyl]-3-oxa-9-azabicyclo[3.3.1]nonan-7-yl]acetic acid] returned a solubility (thermodynamic) in data set [1] of 505 µg/mL (≈ 920 µM). For the same molecule, the EC50 in data set [2] was 22.3 nM. This molecule yielded a CLh in data set [3] of 0 mL/min/kg.

As to `CCOC(=O)C1=C(CN2[C@@H]3COC[C@H]2C[C@H](CC(=O)O)C3)NC(c2nccs2)=N[C@H]1c1cccc(F)c1F` [Example 75, Exo-2-[(1S,5R)-9-[[(4R)-4-(2,3-difluorophenyl)-5-ethoxycarbonyl-2-thiazol-2-yl-1,4-dihydropyrimidin-6-yl]methyl]-3-oxa-9-azabicyclo[3.3.1]nonan-7-yl]acetic acid], in data set [1], the solubility (thermodynamic) was > 656 µg/mL. In data set [2], the EC50 was determined as 29.1 nM. Besides, the CLh in data set [3] turned out to be 1.0 mL/min/kg.

Take `COC(=O)C1=C(CN2[C@@H]3COC[C@H]2C[C@H](CC(=O)O)C3)NC(c2nccs2)=N[C@H]1c1ccccc1Br` [Example 76, Exo-2-[(1S,5R)-9-[[(4R)-4-(2-bromophenyl)-5-methoxycarbonyl-2-thiazol-2-yl-1,4-dihydropyrimidin-6-yl]methyl]-3-oxa-9-azabicyclo[3.3.1]nonan-7-yl]acetic acid]: the solubility (thermodynamic) in data set [1] was > 706 µg/mL. For the same molecule, the EC50 in data set [2] was found to be 31 nM. The same molecule gave a CLh in data set [3] of 3.3 mL/min/kg.

For `COC(=O)C1=C(CN2[C@@H]3COC[C@H]2CN(C(=O)C(C)(C)C(=O)O)C3)NC(c2nccs2)=N[C@H]1c1ccc(F)cc1Cl` [Example 79, 3-[(1S,5R)-9-[[(4R)-4-(2-chloro-4-fluoro-phenyl)-5-methoxycarbonyl-2-thiazol-2-yl-1,4-dihydropyrimidin-6-yl]methyl]-3-oxa-7,9-diazabicyclo[3.3.1]nonan-7-yl]-2,2-dimethyl-3-oxo-propanoic acid], the thermodynamic solubility in data set [1] is > 745 µg/mL. Moreover, the half-maximal effective concentration (EC50) in data set [2] came to 293 nM. Besides, the CLh in data set [3] came out at 3.5 mL/min/kg.

As for `COC(=O)C1=C(CN2[C@H]3CC[C@]2(C(=O)O)COC3)NC(c2nccs2)=N[C@H]1c1ccc(F)cc1Cl` [Example 81, (1S,5R)-8-[[(4R)-4-(2-chloro-4-fluoro-phenyl)-5-methoxycarbonyl-2-thiazol-2-yl-1,4-dihydropyrimidin-6-yl]methyl]-3-oxa-8-azabicyclo[3.2.1]octane-5-carboxylic acid], the solubility (thermodynamic) in data set [1] was > 673 µg/mL. The 50% effective concentration (EC50) in data set [2] amounted to 40.5 nM. In data set [3], this molecule gave a CLh of 0 mL/min/kg.

As to `COC(=O)C1=C(CN2[C@H]3CC[C@]2(C(=O)O)COC3)NC(c2nccs2)=N[C@H]1c1ccc(F)c(F)c1C` [Example 84, (1S,5R)-8-[[(4S)-4-(3,4-difluoro-2-methyl-phenyl)-5-methoxycarbonyl-2-thiazol-2-yl-1,4-dihydropyrimidin-6-yl]methyl]-3-oxa-8-azabicyclo[3.2.1]octane-5-carboxylic acid], the solubility (thermodynamic) in data set [1] was > 643 µg/mL. The EC50 in data set [2] worked out at 37.6 nM. This molecule yielded a CLh in data set [3] of 0 mL/min/kg.

In turn, `COC(=O)C1=C(CN2[C@@H]3C[C@H](CC(=O)O)C[C@H]2C(F)(F)C3)NC(c2nccs2)=N[C@H]1c1ccc(F)cc1Cl` [Example 86, 2-[(1R,3S,5S)-8-[[(4R)-4-(2-chloro-4-fluoro-phenyl)-5-methoxycarbonyl-2-thiazol-2-yl-1,4-dihydropyrimidin-6-yl]methyl]-6,6-difluoro-8-azabicyclo[3.2.1]octan-3-yl]acetic acid] came in with a thermodynamic solubility in data set [1] of 149 µg/mL (≈ 262 µM). Further, in data set [2], the 50% effective concentration (EC50) amounted to 2 nM. Besides, the CLh in data set [3] turned out to be 0 mL/min/kg.

`COC(=O)C1=C(CN2[C@H]3COC[C@@H]2[C@@H](F)[C@H](CC(=O)O)C3)NC(c2nccs2)=N[C@H]1c1cccc(F)c1Cl` [Example 101, 2-[(1R,5R,6S,7S)-9-[[(4R)-4-(2-chloro-3-fluoro-phenyl)-5-methoxycarbonyl-2-thiazol-2-yl-1,4-dihydropyrimidin-6-yl]methyl]-6-fluoro-3-oxa-9-azabicyclo[3.3.1]nonan-7-yl]acetic acid]: the solubility (thermodynamic) in data set [1] is 580 µg/mL (≈ 1020 µM). The EC50 in data set [2] came to 24 nM. This molecule also displayed a CLh in data set [3] of 0 mL/min/kg.

`CCOC(=O)C1=C(CN2[C@@H]3COC[C@H]2[C@H](F)[C@@H](CC(=O)O)C3)NC(c2nccs2)=N[C@H]1c1ccccc1Cl` [Example 102, 2-[(1S,5S,6R,7R)-9-[[(4R)-4-(2-chlorophenyl)-5-ethoxycarbonyl-2-thiazol-2-yl-1,4-dihydropyrimidin-6-yl]methyl]-6-fluoro-3-oxa-9-azabicyclo[3.3.1]nonan-7-yl]acetic acid] came in with a thermodynamic solubility in data set [1] of 410 µg/mL (≈ 728 µM). Moreover, in data set [2], the concentration for a half-maximal effect (EC50) was found to be 66 nM. The molecule also registered a CLh in data set [3] of 3.0 mL/min/kg.

For the molecule `CCOC(=O)C1=C(CN2[C@H]3COC[C@@H]2[C@@H](F)[C@H](CC(=O)O)C3)NC(c2nccs2)=N[C@H]1c1ccccc1Cl` [Example 103, 2-[(1R,5R,6S,7S)-9-[[(4R)-4-(2-chlorophenyl)-5-ethoxycarbonyl-2-thiazol-2-yl-1,4-dihydropyrimidin-6-yl]methyl]-6-fluoro-3-oxa-9-azabicyclo[3.3.1]nonan-7-yl]acetic acid], the thermodynamic solubility in data set [1] worked out at 345 µg/mL (≈ 613 µM). For the same molecule, in data set [2], the 50% effective concentration (EC50) is 274 nM. In data set [3], this molecule registered a CLh of 0 mL/min/kg.

The molecule `COC(=O)C1=C(CN2[C@@H]3C[C@H](CC(=O)O)C[C@H]2C(F)(F)C3)NC(c2nccs2)=N[C@H]1c1ccc(F)c(F)c1` [Example 114, 2-[(1R,3S,5S)-8-[[(4S)-4-(3,4-difluorophenyl)-5-methoxycarbonyl-2-thiazol-2-yl-1,4-dihydropyrimidin-6-yl]methyl]-6,6-difluoro-8-azabicyclo[3.2.1]octan-3-yl]acetic acid] came in with a solubility (thermodynamic) in data set [1] of 224 µg/mL (≈ 405 µM). Besides, the EC50 in data set [2] amounted to 6.3 nM. The molecule also returned a CLh in data set [3] of 1.2 mL/min/kg.

In turn, `COC(=O)C1=C(CN2[C@H]3C[C@@H](CC(=O)O)C[C@@H]2C(F)(F)C3)NC(c2nccs2)=N[C@H]1c1ccc(F)c(F)c1` [Example 115, 2-[(1S,3R,5R)-8-[[(4S)-4-(3,4-difluoro-phenyl)-5-methoxycarbonyl-2-thiazol-2-yl-1,4-dihydropyrimidin-6-yl]methyl]-6,6-difluoro-8-azabicyclo[3.2.1]octan-3-yl]acetic acid] displayed a solubility (thermodynamic) in data set [1] of 128 µg/mL (≈ 232 µM). In addition, in data set [2], the EC50 was 163 nM. Besides, in data set [3], the CLh turned out to be 4.6 mL/min/kg.

For `COC(=O)C1=C(CN2C3COCC2C(O)[C@H](CC(=O)O)C3)NC(c2nccs2)=N[C@H]1c1ccc(F)cc1Cl` (stereo partly drawn) [Example 123, 2-[(7S)-9-[[(4R)-4-(2-chloro-4-fluoro-phenyl)-5-methoxycarbonyl-2-thiazol-2-yl-1,4-dihydropyrimidin-6-yl]methyl]-6-hydroxy-3-oxa-9-azabicyclo[3.3.1]nonan-7-yl]acetic acid], the thermodynamic solubility in data set [1] was > 753 µg/mL. The EC50 in data set [2] was determined as 35.7 nM. In data set [3], the CLh worked out at 3.0 mL/min/kg.

For `COC(=O)C1=C(CN2C3COCC2C(O)[C@@H](CC(=O)O)C3)NC(c2nccs2)=N[C@H]1c1ccc(F)cc1Cl` (stereo partly drawn) [Example 124, 2-[(7R)-9-[[(4R)-4-(2-chloro-4-fluoro-phenyl)-5-methoxycarbonyl-2-thiazol-2-yl-1,4-dihydropyrimidin-6-yl]methyl]-6-hydroxy-3-oxa-9-azabicyclo[3.3.1]nonan-7-yl]acetic acid], the solubility (thermodynamic) in data set [1] is > 753 µg/mL. Moreover, the EC50 in data set [2] worked out at 296 nM. Further, the CLh in data set [3] was found to be 4.2 mL/min/kg.

In data set [1], `COC(=O)C1=C(CN2C3COCC2C(F)(F)[C@@H](CC(=O)O)C3)NC(c2nccs2)=N[C@H]1c1ccc(F)cc1Cl` (stereo partly drawn) [Example 125, 2-[(7R)-9-[[(4R)-4-(2-chloro-4-fluoro-phenyl)-5-methoxycarbonyl-2-thiazol-2-yl-1,4-dihydropyrimidin-6-yl]methyl]-6,6-difluoro-3-oxa-9-azabicyclo[3.3.1]nonan-7-yl]acetic acid] returned a solubility (thermodynamic) of 170 µg/mL (≈ 291 µM). In data set [2], the 50% effective concentration (EC50) was 26.1 nM. This molecule registered a CLh in data set [3] of 0 mL/min/kg.

On to `COC(=O)C1=C(CN2C3COCC2CC(CC(=O)O)C3)NC(c2nccs2)=N[C@H]1c1ccccc1Br` (stereo partly drawn) [Example 134, Endo-2-[9-[[(4R)-4-(2-bromophenyl)-5-methoxycarbonyl-2-thiazol-2-yl-1,4-dihydropyrimidin-6-yl]methyl]-3-oxa-9-azabicyclo[3.3.1]nonan-7-yl]acetic acid], for which the solubility (thermodynamic) in data set [1] is > 695 µg/mL. In addition, the EC50 in data set [2] is 21 nM. This molecule gave a CLh in data set [3] of 1.7 mL/min/kg.
